Laboratory results from patent US12091718B2, “Genetically encoded biosensors for detection of polyketides” (priority 2016, dated 2024).

Assays:
[1] = molecular target: wild-type MphR (MphR(A), macrolide biosensor transcription factor), SEQ ID NO: 2 (gene SEQ ID NO: 1, 28) (Escherichia coli, UniProt Q9EVJ6); assay: cell-based; conditions: for activation of GFP expression under control of WT MphR: result in words
Excerpt: (§1) The sensitivity of biosensors often requires tailoring to meet specific needs. […] A library of MphR gene mutations and variants was created by error-prone PCR (epPCR).
Molecular Biosystems. […] Previous literature reports various induction ranges for MphR-based biosensors depending on the plasmid construct.
Three and five site saturation mutagenesis libraries of the MphR gene that targeted residues of the ligand binding domain were generated using the Quikchange Multi Site-Directed mutagenesis kit (Agilent) and designated QCMS3 and QCMS5, respectively. A third library was generated via error-prone PCR (epPCR) with an average of two amino acid mutations per library clone. Libraries were transformed into E. coli TOP10 cells with plasmid pJZ12 (See FIG. 16 and sequence below) containing genes MphA and mrx and subjected to an initial round of negative sorting in the absence of added ligand via Fluorescence Activated Cell Sorting (FACS) to eliminate variants that are constitutively expressing GFP.
In Table 1, Hill functions were used to derive biosensor transfer functions. K1/2 is the inducer concentration at half maximal induction. Cooperativity is derived from the Hill function to indicate cooperative ligand binding between protein monomers of the MphR dimer. […] The linear range of detection is the linear portion of the dose-response curve with a slope R^2=0.95 or higher.

[2] = molecular target: MphR variant S106F (pikB1, D3; SEQ ID NO: 10, 38) (Escherichia coli, UniProt Q9EVJ6, S106F); assay: cell-based; type: cell-based; conditions: for times more sensitive vs. WT: Table 11
Excerpt: as §1
To test this, the aglycone 6-deoxyerythronolide B (6dEB) was produced via an engineered E. coli strain and purified by flash chromatography. […] To extend this to other systems, the ability of MphR was examined to detect macrolide antibiotics from S. venezuelae.
The ability of the MphR clone “PikB1” to detect a Solithromycin biosynthetic intermediate (see structure below) was determined.

[3] = molecular target: T1, MphR variant A16T/T154M/M155K (M2D6; SEQ ID NO: 16, 44) (Escherichia coli, UniProt Q9EVJ6, A16T/M155K/T154M); assay: MphR-GFP biosensor dose-response, M2D6; type: cell-based; conditions: result in words
T1 construct: GFP under PmphR as reporter
Excerpt: In many cases, it is necessary to determine the presence and concentration of a given polyketide in the presence of other structurally related molecules. Accordingly, the selectivity of MphR requires tailoring towards target molecules.

MphR variant R122T = MphR variant R122T (Escherichia coli, UniProt Q9EVJ6, R122T); assay: MphR-GFP biosensor dose-response, R122T; type: cell-based; conditions: for Hill coefficient: Table 8
[4] = molecular target: T2, MphR variant A16T/T154M/M155K with E7 RBS mutation (M2D6-E7RBS) (Escherichia coli, UniProt Q9EVJ6, A16T/M155K/T154M); assay: MphR-GFP biosensor dose-response, M2D6-E7RBS; type: cell-based
T2 construct: E. coli GFP biosensor

[5] = molecular target: T3, wild-type MphR with mutated RBS AAAGGTT (smRBS2E1; SEQ ID NO: 55) (Escherichia coli, UniProt Q9EVJ6); assay: MphR-GFP biosensor dose-response, smRBS2E1; type: cell-based; conditions: Table 4
T3 construct: GFP reporter in E. coli
Excerpt: as §1

[6] = molecular target: T4, wild-type MphR with RBS mutations A1T/G2T/A3C (smRBS1A1, RBS TTCAGGT; SEQ ID NO: 53) (Escherichia coli, UniProt Q9EVJ6); assay: MphR-GFP biosensor dose-response, smRBS1A1; type: cell-based
T4 construct: GFP reporter in E. coli
Excerpt: as §1

[7] = molecular target: T5, wild-type MphR with mutated RBS CTGAGGT (smRBS1G6) (Escherichia coli, UniProt Q9EVJ6); assay: MphR-GFP biosensor dose-response, smRBS1G6; type: cell-based; conditions: Table 4
T5 construct: GFP reporter in E. coli
Excerpt: as §1

[8] = test system: MphR variant G76C (clone A3/epA3; nt A1G in RBS, aa G76C; SEQ ID NO: 3, 29); assay: MphR-GFP biosensor dose-response, clone G76C (A3); type: cell-based, Escherichia coli; conditions: Table 11
Excerpt: (§2) K1/2 is the inducer concentration at half maximal induction. Cooperativity is derived from the Hill function to indicate cooperative ligand binding between protein monomers of the MphR dimer. Dynamic range is the GFP maximal response minus the minimum GFP response, which in all cases was the response with no ligand. The linear range of detection is the linear portion of the dose-response curve with a slope R^2=0.95 or higher.

[9] = molecular target: T6, MphR variant G76C (clone A3/epA3; nt A1G in RBS, aa G76C; SEQ ID NO: 3, 29) (Escherichia coli, UniProt Q9EVJ6, G76C); assay: MphR-GFP biosensor dose-response, clone G76C (A3); type: cell-based; conditions: Table 1
T6 construct: pMLGFP-derived plasmid, E. coli TOP10 GFP biosensor
Excerpt: as §2

[10] = molecular target: T7, MphR variant V90I (clone E7/epE7; nt A4T in RBS, aa V90I; SEQ ID NO: 4, 30) (Escherichia coli, UniProt Q9EVJ6, V90I); assay: MphR-GFP biosensor dose-response, clone V90I (E7); type: cell-based; conditions: Table 1
T7 construct: E. coli TOP10 with pJZ12
Excerpt: as §2

[11] = test system: MphR variant V90I (clone E7/epE7; nt A4T in RBS, aa V90I; SEQ ID NO: 4, 30); assay: MphR-GFP biosensor dose-response, clone V90I (E7); type: cell-based, Escherichia coli; conditions: Table 11
Excerpt: as §2

[12] = test system: MphR variant T27A/M59E (QCMS5D7; SEQ ID NO: 9, 37); assay: MphR-GFP biosensor dose-response, clone T27A/M59E; type: cell-based, Escherichia coli; conditions: Table 11
Excerpt: (§3) In Table 1, Hill functions were used to derive biosensor transfer functions. K1/2 is the inducer concentration at half maximal induction. Cooperativity is derived from the Hill function to indicate cooperative ligand binding between protein monomers of the MphR dimer. Dynamic range is the GFP maximal response minus the minimum GFP response, which in all cases was the response with no ligand. The linear range of detection is the linear portion of the dose-response curve with a slope R^2=0.95 or higher.

[13] = molecular target: T8, MphR variant T27A/M59E (QCMS5D7; SEQ ID NO: 9, 37) (Escherichia coli, UniProt Q9EVJ6, M59E/T17A); assay: MphR-GFP biosensor dose-response, clone T27A/M59E; type: cell-based; conditions: Table 1
T8 construct: E. coli TOP10 GFP biosensor
Excerpt: as §3

[14] = molecular target: T9, MphR variant T27G/Q65M (QCMS5B4; SEQ ID NO: 8, 36) (Escherichia coli, UniProt Q9EVJ6, Q65M/T17G); assay: MphR-GFP biosensor dose-response, clone T27G/Q65M; type: cell-based
T9 construct: E. coli TOP10 cells with plasmid pJZ12
Excerpt: as §3

[15] = molecular target: T10, MphR variant T17R (QCMS3D6; SEQ ID NO: 6, 34) (Escherichia coli, UniProt Q9EVJ6, T17R); assay: MphR-GFP biosensor dose-response, clone T17R; type: cell-based
T10 construct: E. coli TOP10 GFP biosensor
Excerpt: as §3

[16] = molecular target: T11, wild-type MphR with E7 ribosome binding site mutation only (WT E7-RBS; SEQ ID NO: 32) (Escherichia coli, UniProt Q9EVJ6); assay: cell-based
T11 construct: GFP reporter in E. coli
Excerpt: as §1
To confirm this, new versions of A3 and E7 were constructed that either only included the RBS mutations or the amino acids for each clone.

## CC[C@H]1OC(=O)[C@H](C)[C@@H](O)[C@H](C)[C@@H](O)[C@@H](C)C[C@@H](C)C(=O)[C@H](C)[C@@H](O)[C@H]1C [Compound 6dEB, 6-deoxyerythronolide B]
[1]
  activation of GFP expression under control of WT MphR: failed to activate GFP expression

## CC[C@H]1OC(=O)[C@H](C)[C@@H](O)[C@@H](C)C[C@@H](C)C(=O)/C=C/[C@H]1C [Compound 10-DML, 10-deoxymethynolide]
[1]
  activation of GFP expression under control of WT MphR: neither WT or D3 MphR is activated
[2]; result in words, FIG. 4C
  activation: neither WT or D3 MphR is activated

## CC[C@H]1OC(=O)[C@H](C)[C@@H](O[C@H]2C[C@@](C)(OC)[C@@H](O)[C@H](C)O2)[C@H](C)[C@@H](O[C@@H]2O[C@H](C)C[C@H](N(C)C)[C@H]2O)[C@](C)(OC)C[C@@H](C)C(=O)/C(C)=C/[C@]1(C)O [Solithromycin biosynthetic intermediate]
[1]; K1/2, FIG. 20
  EC50: 70.9 µM
[2]; FIG. 20
  detects the intermediate at concentrations as low as: 0.1 µM
[2]
  times more sensitive vs. WT: 52 times more

## CC[C@H]1OC(=O)[C@H](C)[C@@H](O[C@@H]2O[C@H](C)C[C@H](N(C)C)[C@H]2O)[C@@H](C)C[C@@H](C)C(=O)/C=C/[C@H]1C [YC-17]
[1]; K1/2, Table 12
  EC50: 19.6 ± 0.6 µM
[2]
  EC50: 0.49 ± 0.05 µM
  times more sensitive vs. WT: 40 times more

## CC[C@H]1OC(=O)[C@H](C)[C@@H](O[C@H]2C[C@@](C)(OC)[C@@H](O)[C@H](C)O2)[C@H](C)[C@@H](O[C@@H]2O[C@H](C)C[C@H](N(C)C)[C@H]2O)[C@](C)(O)C[C@@H](C)CN(C)[C@H](C)[C@@H](O)[C@]1(C)O [azithromycin]
[1]; K1/2, Table 6
  EC50: 0.6 ± 0.02 µM
[1]; K1/2, Table 7
  EC50: 0.6 µM
[3]
  activation: little to no activation

## CC[C@H]1OC(=O)[C@H](C)[C@@H](O[C@H]2C[C@@](C)(OC)[C@@H](O)[C@H](C)O2)[C@H](C)[C@@H](O[C@@H]2O[C@H](C)C[C@H](N(C)C)[C@H]2O)[C@](C)(OC)C[C@@H](C)C(=O)[C@H](C)[C@@H](O)[C@]1(C)O [clarithromycin, 6-O-methylerythromycin]
MphR variant R122T
  EC50: 24.2 µM
  Hill coefficient: 3.03
[4]
  EC50: 12.7 µM

## CC[C@H]1OC(=O)[C@H](C)[C@@H](O[C@H]2C[C@@](C)(OC)[C@@H](O)[C@H](C)O2)[C@H](C)[C@@H](O[C@@H]2O[C@H](C)C[C@H](N(C)C)[C@H]2O)[C@](C)(O)C[C@@H](C)C(=O)[C@H](C)[C@@H](O)[C@]1(C)O [erythromycin A]
[5]
  Hillc: 3.9 ± 0.5
[1]; Table 1, derived from the Hill function
  Cooperativity: 4.44 ± 1.52
[1]; Table 4
  Hillc: 3.6 ± 0.3
[1]; Table 8
  Hill coefficient: 3.52
[1]; Table 9
  Cooperativity: 3.39
[1]
  activation of GFP expression under control of WT MphR: good activator
[6]; Table 4
  Hillc: 1.7 ± 0.1
[6]; Table 11
  times more sensitive vs. WT: 9.9 times more
[7]
  Hillc: 5.4 ± 1.2
MphR variant R122T
  Hill coefficient: 2.39
[8]
  times more sensitive vs. WT: 3.6 times more
[9]
  Cooperativity: 1.80 ± 0.01
[10]
  Cooperativity: 2.84 ± 0.42
[11]
  times more sensitive vs. WT: 3.0 times more
[4]
  enhanced sensitivity: 2 fold
[12]
  times more sensitive vs. WT: 2.0 times more
[13]
  Cooperativity: 2.59 ± 0.04
[14]; Table 1
  Cooperativity: 2.92 ± 0.17
[14]; Table 11
  times more sensitive vs. WT: 1.5 times more
[15]; Table 1
  Cooperativity: 3.16 ± 0.13
[15]; Table 11
  times more sensitive vs. WT: 2.4 times more

## CC[C@H]1OC(=O)[C@H](C)[C@@H](O[C@H]2C[C@@](C)(OC)[C@@H](O)[C@H](C)O2)[C@H](C)[C@@H](O[C@@H]2O[C@H](C)C[C@H](N(C)C)[C@H]2O)[C@](C)(O)C[C@@H](C)C(=O)[C@H](C)[C@@H](O)[C@H]1C [erythromycin B]
[1]; K1/2, Table 9
  EC50: 1.72 µM
[1]; Table 9
  Cooperativity: 1.99
[1]
  activation of GFP expression under control of WT MphR: activate MphR-WT in a nearly identical manner

## CC[C@H]1OC(=O)[C@H](C)[C@@H](O[C@H]2C[C@@](C)(O)[C@@H](O)[C@H](C)O2)[C@H](C)[C@@H](O[C@@H]2O[C@H](C)C[C@H](N(C)C)[C@H]2O)[C@](C)(O)C[C@@H](C)C(=O)[C@H](C)[C@@H](O)[C@]1(C)O [erythromycin C]
[1]
  activation of GFP expression under control of WT MphR: activate MphR-WT in a nearly identical manner

## CC[C@H]1OC(=O)[C@H](C)C(=O)[C@H](C)[C@@H](O[C@@H]2O[C@H](C)C[C@H](N(C)C)[C@H]2O)[C@@H](C)C[C@@H](C)C(=O)/C=C/[C@H]1C [narbomycin]
[1]; read-out: Activation ratio (5 uM/0 uM)
  fold induction at 5 µM: 4

## CC[C@H]1OC(=O)[C@H](C)C(=O)[C@H](C)[C@@H](O[C@@H]2O[C@H](C)C[C@H](N(C)C)[C@H]2O)[C@@H](C)C[C@@H](C)C(=O)/C=C/[C@]1(C)O [pikromycin]
[1]; K1/2, Table 5
  EC50: 97 ± 2 µM
[1]; K1/2, Table 14
  EC50: 96.6 ± 2.7 µM
[6]
  EC50: 48 ± 5 µM
  sensitivity improved, compared to the wild-type MphR: 2 fold
[16]
  EC50: 50 ± 20 µM
[2]
  EC50: 0.81 ± 0.02 µM
  times more sensitive vs. WT: 118 times more

## CC[C@H]1OC(=O)[C@H](C)[C@@H](O[C@H]2C[C@@](C)(OC)[C@@H](O)[C@H](C)O2)[C@H](C)[C@@H](O[C@@H]2O[C@H](C)C[C@H](N(C)C)[C@H]2O)[C@](C)(O)C[C@@H](C)/C(=N\OCOCCOC)[C@H](C)[C@@H](O)[C@]1(C)O [roxithromycin]
[1]; K1/2, Table 6
  EC50: 67.2 ± 3.41 µM
[1]; K1/2, Table 7
  EC50: 74.1 µM
[3]
  activation: little to no activation
